Converted amounts (≈) assume the structure as drawn.
What was measured:
Assay type in all cases: cell-based
Salmonella typhi 901 = assay: Antibacterial activity, agar-dilution MIC, organism No. 9; settings: Salmonella enterica, TYPHI, read-out: Minimum Inhibitory Concentration
In short: (§1)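 Values come from agar-dilution plates prepared with bouillon agar; they represent the least specimen concentration (μg/ml of medium) giving inhibition.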

[1] = test system: Enterobacter aerogenes ATCC 13048; assay: Antibacterial activity, agar-dilution MIC, organism No. 23; settings: Klebsiella aerogenes, ATCC13048; Organism No. 23, bouillon-agar; read-out: Minimum Inhibitory Concentration
In short: as §1

[2] = test system: Staphylococcus aureus MS 353; assay: Antibacterial activity, agar-dilution MIC, organism No. 3; settings: Staphylococcus aureus, MS353; Organism No. 3, bouillon-agar; read-out: Minimum Inhibitory Concentration
In short: as §1

[3] = test system: Candida albicans IAM 4905; assay: Antifungal activity, agar-dilution MIC, organism No. 29; settings: Candida albicans, IAM4905; Organism No. 29, bouillon-agar; read-out: Minimum Inhibitory Concentration
In short: as §1

[4] = test system: Klebsiella pneumoniae PCI-602; assay: Antibacterial activity, agar-dilution MIC, organism No. 7; settings: Klebsiella pneumoniae, PCI602; Organism No. 7, bouillon-agar; read-out: Minimum Inhibitory Concentration
In short: as §1

[5] = test system: Salmonella paratyphi-A 1015; assay: Antibacterial activity, agar-dilution MIC, organism No. 10; settings: Salmonella enterica, PARATYPHI, read-out: Minimum Inhibitory Concentration
In short: as §1

[6] = test system: Streptococcus pyogenes IFO 3340; assay: Antibacterial activity, agar-dilution MIC, organism No. 26; settings: Streptococcus pyogenes, IFO3340; Organism No. 26, bouillon-agar; read-out: Minimum Inhibitory Concentration
In short: as §1

[7] = test system: Salmonella typhimurium IID 971; assay: Antibacterial activity, agar-dilution MIC, organism No. 8; settings: Salmonella enterica; Organism No. 8, bouillon-agar; read-out: Minimum Inhibitory Concentration
In short: as §1

[8] = test system: Proteus morganii IFO 3848; assay: Antibacterial activity, agar-dilution MIC, organism No. 18; settings: Morganella morganii, IFO3848; Organism No. 18, bouillon-agar; read-out: Minimum Inhibitory Concentration
In short: as §1

Proteus vulgaris OX-19 = assay: Antibacterial activity, agar-dilution MIC, organism No. 20; settings: Proteus vulgaris, OX19; Organism No. 20, bouillon-agar; read-out: Minimum Inhibitory Concentration
In short: as §1

[9] = test system: Aspergillus niger IFO 6342; assay: Antifungal activity, agar-dilution MIC, organism No. 30; settings: Aspergillus niger, IFO6342; Organism No. 30, bouillon-agar; read-out: Minimum Inhibitory Concentration
In short: as §1

[10] = test system: Staphylococcus aureus FDA 209PJc-1; assay: Antibacterial activity, agar-dilution MIC, organism No. 1; settings: Staphylococcus aureus, FDA209PJC1; Organism No. 1, bouillon-agar; read-out: Minimum Inhibitory Concentration
In short: as §1

[11] = test system: Proteus mirabilis IFO 3849; assay: Antibacterial activity, agar-dilution MIC, organism No. 19; settings: Proteus mirabilis, IFO3849; Organism No. 19, bouillon-agar; read-out: Minimum Inhibitory Concentration
In short: as §1

[12] = test system: Salmonella enteritidis G 14; assay: Antibacterial activity, agar-dilution MIC, organism No. 12; settings: Salmonella enterica, ENTERITIDIS; Organism No. 12, bouillon-agar; read-out: Minimum Inhibitory Concentration
In short: as §1

[13] = test system: Escherichia coli NIHJ-JC-2; assay: Antibacterial activity, agar-dilution MIC, organism No. 5; settings: Escherichia coli, NIHJJC2; Organism No. 5, bouillon-agar; read-out: Minimum Inhibitory Concentration
In short: as §1

[14] = test system: Mycoplasma pneumoniae IID817; assay: Antimycoplasmal activity, MIC by phenol red colour change, organism No. 28; settings: Mycoplasma, IID817; Organism No. 28, PPLO broth + 1% glucose, 37° C.; read-out: Minimum Inhibitory Concentration (MIC)
Protocol: Mycoplasma pneumoniae IID817 was used as the test microorganism in a culture medium prepared by adding 1% of glucose to "PPLO broth (manufactured by Difco Co.) liquid culture medium" at 37° C. with phenol red as an indicator, thereby culturing the test microorganism.

Proteus vulgaris HX-19 = assay: Antibacterial activity, agar-dilution MIC, organism No. 21; settings: Proteus vulgaris, HX19; Organism No. 21, bouillon-agar; read-out: Minimum Inhibitory Concentration
In short: as §1

[15] = test system: Bacillus subtilis ATCC 6633; assay: Antibacterial activity, agar-dilution MIC, organism No. 14; settings: Bacillus subtilis, ATCC6633; Organism No. 14, bouillon-agar; read-out: Minimum Inhibitory Concentration
In short: as §1

[16] = test system: Staphylococcus aureus Terajima; assay: Antibacterial activity, agar-dilution MIC, organism No. 2; settings: Staphylococcus aureus; Organism No. 2, bouillon-agar; read-out: Minimum Inhibitory Concentration
In short: as §1

Enterobacter cloacae 963 = assay: Antibacterial activity, agar-dilution MIC, organism No. 24; settings: Enterobacter cloacae, 963; Organism No. 24, bouillon-agar; read-out: Minimum Inhibitory Concentration
In short: as §1

[17] = test system: Pseudomonas aeruginosa IFO 3445; assay: Antibacterial activity, agar-dilution MIC, organism No. 15; settings: Pseudomonas aeruginosa, IFO3445; Organism No. 15, bouillon-agar; read-out: Minimum Inhibitory Concentration
In short: as §1

[18] = test system: Micrococcus luteus ATCC 9341; assay: Antibacterial activity, agar-dilution MIC, organism No. 25; settings: Micrococcus luteus, ATCC9341; Organism No. 25, bouillon-agar; read-out: Minimum Inhibitory Concentration
In short: as §1

[19] = test system: Salmonella shottmuelleri 8006; assay: Antibacterial activity, agar-dilution MIC, organism No. 11; settings: Salmonella, 8006; Organism No. 11, bouillon-agar; read-out: Minimum Inhibitory Concentration
In short: as §1

[20] = test system: Streptococcus faecium IFO 3826; assay: Antibacterial activity, agar-dilution MIC, organism No. 27; settings: Enterococcus faecium, IFO3826; Organism No. 27, bouillon-agar; read-out: Minimum Inhibitory Concentration
In short: as §1

[21] = test system: Pseudomonas aeruginosa NCTC 10490; assay: Antibacterial activity, agar-dilution MIC, organism No. 16; settings: Pseudomonas aeruginosa, NCTC10490; Organism No. 16, bouillon-agar; read-out: Minimum Inhibitory Concentration
In short: as §1

[22] = test system: Pseudomonas aeruginosa PAO 1; assay: Antibacterial activity, agar-dilution MIC, organism No. 17; settings: Pseudomonas aeruginosa, PAO1; Organism No. 17, bouillon-agar; read-out: Minimum Inhibitory Concentration
In short: as §1

[23] = test system: Escherichia coli K12 C600 IAM 1264; assay: Antibacterial activity, agar-dilution MIC, organism No. 6; settings: Escherichia coli, IAM1264; Organism No. 6, bouillon-agar; read-out: Minimum Inhibitory Concentration
In short: as §1

[24] = test system: Serratia marcescens IAM 1184; assay: Antibacterial activity, agar-dilution MIC, organism No. 13; settings: Serratia marcescens, IAM1184; Organism No. 13, bouillon-agar; read-out: Minimum Inhibitory Concentration
In short: as §1

[25] = test system: Proteus rettgeri IFO 3850; assay: Antibacterial activity, agar-dilution MIC, organism No. 22; settings: Providencia rettgeri, IFO3850; Organism No. 22, bouillon-agar; read-out: Minimum Inhibitory Concentration
In short: as §1

[26] = test system: Streptococcus pyogenes Cook; assay: Antibacterial activity, agar-dilution MIC, organism No. 4; settings: Streptococcus pyogenes; Organism No. 4, bouillon-agar; read-out: Minimum Inhibitory Concentration
In short: as §1

[C-]#[N+]C12CC3(/C=C/C(=O)Nc4ccccc4N)OC3C1O2 (stereo not shown) [compound 61]
MIC (Salmonella typhi 901): 3.13 µg/mL (≈ 11 µM)
MIC [1]: > 200 µg/mL
MIC [2]: 3.13 µg/mL (≈ 11 µM)
MIC [3]: 25 µg/mL (≈ 88.2 µM)
MIC [4]: 1.56 µg/mL (≈ 5.51 µM)
MIC [5]: 3.13 µg/mL (≈ 11 µM)
MIC [6]: 6.25 µg/mL (≈ 22.1 µM)
MIC [7]: 6.25 µg/mL (≈ 22.1 µM)
MIC [8]: 3.13 µg/mL (≈ 11 µM)
MIC (Proteus vulgaris OX-19): 3.13 µg/mL (≈ 11 µM)
MIC [9]: 100 µg/mL (≈ 353 µM)
MIC [10]: 3.13 µg/mL (≈ 11 µM)
MIC [11]: 12.5 µg/mL (≈ 44.1 µM)
MIC [12]: 3.13 µg/mL (≈ 11 µM)
MIC [13]: 12.5 µg/mL (≈ 44.1 µM)
MIC [14]: < 0.2 µg/mL
MIC (Proteus vulgaris HX-19): 1.56 µg/mL (≈ 5.51 µM)
MIC [15]: 25 µg/mL (≈ 88.2 µM)
MIC [16]: 12.5 µg/mL (≈ 44.1 µM)
MIC (Enterobacter cloacae 963): 100 µg/mL (≈ 353 µM)
MIC [17]: > 200 µg/mL
MIC [18]: 0.78 µg/mL (≈ 2.75 µM)
MIC [19]: 3.13 µg/mL (≈ 11 µM)
MIC [20]: 100 µg/mL (≈ 353 µM)
MIC [21]: > 200 µg/mL
MIC [22]: > 200 µg/mL
MIC [23]: 12.5 µg/mL (≈ 44.1 µM)
MIC [24]: 25 µg/mL (≈ 88.2 µM)
MIC [25]: 3.13 µg/mL (≈ 11 µM)

[C-]#[N+]C12CC3(/C=C/C(=O)Nc4nccs4)OC3C1O2 (stereo not shown) [compound 65]
MIC [26]: 12.5 µg/mL (≈ 45.4 µM)
MIC (Salmonella typhi 901): 3.13 µg/mL (≈ 11.4 µM)
MIC [1]: > 200 µg/mL
MIC [2]: < 0.1 µg/mL
MIC [3]: 12.5 µg/mL (≈ 45.4 µM)
MIC [4]: 1.56 µg/mL (≈ 5.67 µM)
MIC [5]: 1.56 µg/mL (≈ 5.67 µM)
MIC [7]: 25 µg/mL (≈ 90.8 µM)
MIC [8]: 1.56 µg/mL (≈ 5.67 µM)
MIC (Proteus vulgaris OX-19): 3.13 µg/mL (≈ 11.4 µM)
MIC [9]: 50 µg/mL (≈ 182 µM)
MIC [10]: < 0.1 µg/mL
MIC [11]: > 200 µg/mL
MIC [12]: 3.13 µg/mL (≈ 11.4 µM)
MIC [13]: 12.5 µg/mL (≈ 45.4 µM)
MIC [14]: < 0.2 µg/mL
MIC (Proteus vulgaris HX-19): 0.2 µg/mL (≈ 0.727 µM)
MIC [15]: 12.5 µg/mL (≈ 45.4 µM)
MIC [16]: 0.39 µg/mL (≈ 1.42 µM)
MIC (Enterobacter cloacae 963): > 200 µg/mL
MIC [17]: > 200 µg/mL
MIC [18]: 0.1 µg/mL (≈ 0.363 µM)
MIC [19]: 1.56 µg/mL (≈ 5.67 µM)
MIC [21]: > 200 µg/mL
MIC [22]: > 200 µg/mL
MIC [23]: 6.25 µg/mL (≈ 22.7 µM)
MIC [24]: 12.5 µg/mL (≈ 45.4 µM)
MIC [25]: 100 µg/mL (≈ 363 µM)

[C-]#[N+]C12CC3(/C=C/C(=O)NC4=NCCS4)OC3C1O2 (stereo not shown) [compound 66]
MIC [26]: 12.5 µg/mL (≈ 45.1 µM)
MIC (Salmonella typhi 901): 6.25 µg/mL (≈ 22.5 µM)
MIC [1]: > 200 µg/mL
MIC [2]: 12.5 µg/mL (≈ 45.1 µM)
MIC [3]: 25 µg/mL (≈ 90.2 µM)
MIC [4]: 6.25 µg/mL (≈ 22.5 µM)
MIC [5]: 12.5 µg/mL (≈ 45.1 µM)
MIC [7]: 25 µg/mL (≈ 90.2 µM)
MIC [8]: 3.13 µg/mL (≈ 11.3 µM)
MIC (Proteus vulgaris OX-19): 3.13 µg/mL (≈ 11.3 µM)
MIC [9]: 50 µg/mL (≈ 180 µM)
MIC [10]: 12.5 µg/mL (≈ 45.1 µM)
MIC [11]: 200 µg/mL (≈ 721 µM)
MIC [12]: 6.25 µg/mL (≈ 22.5 µM)
MIC [13]: 25 µg/mL (≈ 90.2 µM)
MIC [14]: < 0.2 µg/mL
MIC (Proteus vulgaris HX-19): 3.13 µg/mL (≈ 11.3 µM)
MIC [15]: 25 µg/mL (≈ 90.2 µM)
MIC [16]: 25 µg/mL (≈ 90.2 µM)
MIC (Enterobacter cloacae 963): > 200 µg/mL
MIC [17]: > 200 µg/mL
MIC [18]: 0.1 µg/mL (≈ 0.361 µM)
MIC [19]: 12.5 µg/mL (≈ 45.1 µM)
MIC [21]: > 200 µg/mL
MIC [22]: > 200 µg/mL
MIC [23]: 50 µg/mL (≈ 180 µM)
MIC [24]: > 200 µg/mL
MIC [25]: > 200 µg/mL
